Measured values taken from US8022029B2, “Fabric softening compositions comprising polymeric materials” (priority 2007, dated 2011).

Key:
[1] = Proportion of perfume extracted from esterquat aggregates to polymeric material fibers (dosing by HPLC); format: physicochemical; conditions: 16 hours
Procedure: (§1) The capsules were then reformulated with a copolymer of polyether and polyurethane-polyurea (commercially available as Lycra) polymeric fiber material. […] The containers were shacked for 16 hours to allow the systems to equilibrate. The polymeric material was then removed, and the esterquat was tested for perfume molecule content (via dosing by HPLC).

[2] = format: physicochemical
Procedure: as §1
(§2) Polystyrene cross-linked with divinyl benzene was explored as the polymeric material. The partition coefficient of perfume molecules between such cross-linked polystyrene coated with an aminoplast shell (commercially available as Serdolit III) and esterquat was evaluated.

[3] = format: physicochemical; remark: listed apart in the source
Procedure: as §2

[4] = Table 4; cited from earlier work
[5] = 1.0 g polymeric material in 100 g softener (3.6% esterquat, 0.38% perfume)
[6] = 3.1 g polymeric material in 100 g softener (3.6% esterquat, 0.38% perfume)
[7] = 5.0 g polymeric material in 100 g softener (3.6% esterquat, 0.38% perfume)

| SMILES | proportion of perfume absorbed by the polymeric material [1, 5] | proportion of perfume absorbed by the polymeric material [1, 6] | proportion of perfume absorbed by the polymeric material [1, 7] | Partition Coefficient of Copolymer of polyether and polyurethane [2] | Partition Coefficient of Polystyrene Material [3] | Log P [4] |
| --- | --- | --- | --- | --- | --- | --- |
| C=CC(C)(O)CCC=C(C)C (stereo not shown) [Linalool, linalool] | – | – | – | – | – | 2.43 |
| CC(C)=CCC/C(C)=C\CO [Nerol, nerol] | – | – | – | – | – | 2.65 |

Now from value to compound, other results behind:

| proportion of perfume absorbed by the polymeric material [1, 5] | proportion of perfume absorbed by the polymeric material [1, 6] | proportion of perfume absorbed by the polymeric material [1, 7] | Partition Coefficient of Copolymer of polyether and polyurethane [2] | Partition Coefficient of Polystyrene Material [3] | SMILES | Log P [4] |
| --- | --- | --- | --- | --- | --- | --- |
| 0.24 | 0.45 | 0.57 | 1.0 | 6.7 | C=CCc1ccc(O)c(OC)c1 [Eugenol, eugenol] | – |
| 0.34 | 0.63 | 0.69 | 1.4 | 6.7 | CCCCCCOC(=O)c1ccccc1O [Hexyl Salicylate, hexyl salicylate] | 5.26 |
| 0.26 | 0.51 | 0.60 | – | – | CC(CCO)CCc1ccccc1 (stereo not shown) [Phenyl Hexanol, phenyl hexanol] | – |
